Source: patent US8691874B2, “Treatment of ophthalmic disorders using urea” (Kato Pharmaceuticals, Inc., priority 2000, dated 2014)
Where “and” joins values, the source holds several entries; their conditions need not be identical. Identical values can stand only once. Like-named read-outs stand apart in the source and are kept apart here.

Legend:
[1] = tested on: human patients with retinitis pigmentosa; assay: Double masked placebo controlled dose escalation study in retinitis pigmentosa (Example VII); format: in vivo
Experimental: A double masked placebo controlled, randomized, dose escalation study was done in 32 human patients with retinitis pigmentosa. All patients were treated with a single intravitreal injection of 50 μl of a urea-containing formulation. Three groups of patients received different concentrations of urea. One group received a formulation containing 1.5% urea, 0.9% sodium chloride, and sterile water for injection. A second group received an identical formulation except the formulation contained 3.0% urea. A third group received an identical formulation except the formulation contained 6.0% urea. A placebo group received 50 μl of 0.9% sodium chloride.
Forty-seven percent of the patient reported an increase of at least 3 lines of best corrected visual acuity measured by ETDRS charts, whereas, only 14% of the placebo patients reported an increase of at least 3 lines of best corrected visual acuity measured by ETDRS charts.
There was no dramatic increase in the visual field of the placebo control patients.

[2] = tested on: posterior vitreous of rabbits; assay: Injection of urea into the vitreous, specialized histological techniques in rabbits; format: in vivo; details: after urea treatment
Text: (§1) In addition, disinsertion of the posterior vitreous has been observed in patients by the use of slit lamp biomicroscopy and in rabbits by specialized histological techniques after urea treatment.

[3] = tested on: human patients requiring pars plana vitrectomy; assay: Intravitreal urea as adjunct to vitrectomy (Example V); format: in vivo
Experimental: In this example, five human patients requiring pars plana vitrectomy for various indications were treated one week prior to vitrectomy with a single intravitreal injection of 100 μl of a urea in aqueous solution. The formulation contained 6% urea, 0.9% sodium chloride, and sterile water for injection (qs 100%). All patients underwent routine vitrectomies 8 to 10 days after the urea injection. The minimum waiting time between the urea injection and the vitrectomy procedure is about 1 day to 3 days.
No vitrectomy cutter was used.

[4] = tested on: stage 3 idiopathic macular hole patient; assay: Intravitreal urea followed by C3F8 gas in a patient with idiopathic macular hole (Example II); format: in vivo, human; details: for visual acuity: baseline 20/400; for size of the macular hole: baseline 450 μm
Experimental: The macular defect was classified as a stage 3 macular hole, and the patient's visual acuity was recorded at 20/400 at a baseline time point prior to urea treatment. […] Seven days after the intravitreal urea injection the patient was administered an intravitreal injection of 0.3 ml of expandable gas (C3F8).
One week after administration of the gas, the size of the macular hole had decreased from 450 μm to a smaller size of 200 μm and the patient's vision had improved from a baseline visual acuity of 20/400 to 20/80. Two weeks post treatment the size of the macular hole had decreased from 450 μm to a smaller size of 90 μm and the patient's vision had improved from a baseline visual Acuity of 20/400 to 20/70. Four weeks post treatment the size of the macular hole had decreased from 450 μm to a smaller size of 60 μm and the patient's vision had improved from a baseline visual acuity of 20/400 to 20/60.

[5] = tested on: patients with nonproliferative diabetic retinopathy; assay: Treatment of nonproliferative diabetic retinopathy (Example VI); format: in vivo, human
Experimental: Sixty-nine patients with nonproliferative diabetic retinopathy were each administered a single intravitreal injection of 50 μl of a urea formulation containing 3% urea, 0.9% sodium chloride, and sterile water for injection.
The vitreous liquefaction and vitreous collapse in nonproliferative diabetic retinopathy patients would inhibit the growth and proliferation of the blood vessels, and thus inhibit the progression of diabetic retinopathy. All 69 (of the) patients were followed for six months following the procedure.

[6] = tested on: patients with optic nerve damage related to optic nerve tumors; assay: Treatment of optic nerve damage related to optic nerve tumors (Example VIII); format: in vivo, human
Experimental: In another study, three patients with long standing (6 months or longer) optic nerve damage related to optic nerve tumors were treated with a single intravitreal injection of 100 μl of a 6% urea containing formulation. All three patient treated reported a significant improvement in visual acuity after treatment. The patients' visual acuity improved from an average of Count Fingers at 12 inches to 20/200.

[7] = tested on: human patients with optic nerve damage caused by trauma and/or glaucoma; assay: Double masked placebo controlled dose escalation study in optic nerve damage (Example VIII); format: in vivo
Experimental: In accordance with the present invention, urea, thiourea, guanidine and possibly the other compounds of General Formula I above are effective to treat neuropathies (e.g., disorders or damage to nerves). In this example, 33 non sighted patients with optic nerve damage caused by trauma and/or glaucoma, with visual acuity of light perception or no light perception were administered a urea-containing formulation, as disclosed herein. The study was a double masked placebo controlled, randomized, dose escalation study conducted with 33 human patients with optic nerve damage. Patients were randomized into 5 groups, Group 1 of 5 patients, Group 2 of 4 patients, Group 3 of 8 patients, Group 4 of 8 patients and Group 5 of 8 patients. Each patient received a single intravitreal injection of 50 μl of an aqueous treatment solution, as follows:
In Six patients the vision improved from No light perception to light perception, in 2 patients the vision improved from light perception to count fingers at 12 inches, in 2 patients the vision improved from no light perception to 20/400 and 20/800 vision and in 2 patients the vision improved from light perception to 20/600 and 20/800 vision. No patients in the placebo group reported any improvement in best corrected visual acuity as measured by ETDRS charts.

[8] = tested on: human patients with diabetes-related nonclearing vitreous hemorrhage; assay: Treatment of vitreous hemorrhage (Example IV); format: in vivo
Experimental: The formulations and treatments disclosed herein are also effective to treat vitreous hemorrhage. In this example, seven human patients were treated for diabetes-related nonclearing vitreous hemorrhage. Each patient received a single intravitreal injection of 100 μl of a formulation containing urea. The formulation used in this example contained 6% urea, 0.9% sodium chloride, and sterile water for injection (qs 100%).

[9] = tested on: vitreous body of patients; assay: Injection of urea into the vitreous, slit lamp biomicroscopy in patients; format: in vivo, human
Text: as §1

[10] = 10% water solution; cited from earlier work
[11] = cited from earlier work
[12] = tested on: human patients with single or multiple retinal tears; assay: Intravitreal urea 3 days before pneumatic Retinopexy in patients with retinal tears (Example I); format: in vivo
Experimental: All patients received pneumatic Retinopexy treatment 3 days after intravitreal injection of 1.5 mg of urea in 50 μl of aqueous solution prepared according to the formulation set forth in Table 11 above. […] Within 3-7 days after urea injection, 11/12 patients had developed PVD, only 1/12 patients had not developed PVD. Within 90 days of the urea injection that one patient also developed PVD.
Within 3 days of treatment 9/12 patients had complete retinal reattachment and macular attachment, and within 7 days all 12 patients had complete retinal reattachment and macular attachment.
(Tornambe, P. E. et. al. Opthalmology, 1989; 96: 772-783).

[13] = cited from earlier work; remark: listed apart in the source
[14] = one week after administration of the gas

## NC(N)=O [urea]
[1]; single intravitreal 50 μl of 1.5%, 3.0% or 6.0% urea, groups pooled
  patients with increase of at least 3 lines of best corrected visual acuity measured by ETDRS charts: Forty-seven
[1]; urea-treated patients
  average improvement in the patient's visual field: 10 degrees
[2]
  disinsertion of the posterior vitreous: observed
[3]; 100 μl of 6% urea one week prior to vitrectomy
  decrease in surgical time relative to patients who did not receive urea: 70%
[3]; by one week after single intravitreal 100 μl of 6% urea, five patients
  vitreous liquefaction and collapse: complete vitreous liquefaction and collapse
[4]; 1.5 mg urea in 50 μl
  adverse effects of the intravitreal injection, ophthalmoscopic and biomicroscopic examination: no adverse effects
[4]; four weeks post treatment
  visual acuity: 20/60
  size of the macular hole: 60 μm
[4]; [14]
  visual acuity: 20/80
  size of the macular hole: 200 μm
[4]; single intravitreal 1.5 mg urea in 50 μl, Table III formulation
  time to complete Posterior Vitreous Detachment (PVD): ≤ 7 days
[4]; two weeks post treatment
  visual acuity: 20/70
  size of the macular hole: 90 μm
[5]; 50 μl of 3% urea
  time to complete vitreous liquefaction and collapse after administration: 2-4 weeks
[5]; single intravitreal 50 μl of 3% urea, 0.9% sodium chloride
  patients with complete vitreous liquefaction and collapse: 69 patients
[6]; from an average of Count Fingers at 12 inches, 100 μl of 6% urea
  average visual acuity after treatment: 20/200
[6]; single intravitreal 100 μl of 6% urea, three patients
  patients reporting a significant improvement in visual acuity after treatment: All three
[7]; 50 μl of 0.2-6.0% urea
  patients whose vision improved from No light perception to light perception: Six
  patients whose vision improved from light perception to 20/600 and 20/800 vision: 2 patients
  patients whose vision improved from light perception to count fingers at 12 inches: 2 patients
  patients whose vision improved from no light perception to 20/400 and 20/800 vision: 2 patients
[7]; single intravitreal 50 μl of 0.2%, 1.5%, 3.0% or 6.0% urea
  patients with increase of best corrected visual acuity measured by ETDRS charts: Forty-three
[8]; 100 μl of 6% urea
  rate of hemorrhagic blood clearance compared with normal clearance rates in clinical practice: significantly accelerated
[8]; single intravitreal 100 μl of 6% urea, 0.9% sodium chloride, seven patients
  patients with clearance of vitreous hemorrhage sufficient to treat the retina with photocoagulation: All seven
[9]; after injection of urea into the vitreous
  liquefaction of the vitreous body and breakdown of hyaluronic acid of the vitreous: within several days
[9]; patients, slit lamp biomicroscopy, after urea treatment
  disinsertion of the posterior vitreous: observed
[10]
  pH: 7.2
[11]; aqueous urea solutions, develop an odor of ammonia
  stability: gradually degrade
[11]; stored under dry conditions at room temperature
  stability: stable
[12]; 1.5 mg urea in 50 μl intravitreal, 12 patients
  adverse effects of the intravitreal injection, ophthalmoscopic and biomicroscopic examination: no adverse effects
[12]; 6 months after Retinopexy
  average improvement of visual acuity per patient: 4.2 lines and 21 letters
[12]; 6 months post Retinopexy
  patients with improvement of more than 2 lines of visual acuity (11 letters): 64%
[12]; 90 days follow up
  occurrence of new retinal tears with associated retinal detachment: none of the patients
[12]; after urea injection, 1.5 mg in 50 μl
  time by which the one remaining patient developed PVD: ≤ 90 days
[12]; urea 3 days prior to pneumatic Retinopexy, time point not given
  patients with improvement of more than 2 lines of visual acuity (11 letters): 64%
[12]; within 3-7 days after urea injection, 1.5 mg in 50 μl
  patients who had developed PVD: 11/12
[12]; within 3 days of treatment
  patients with complete retinal reattachment and macular attachment: 9/12
[12]; within 7 days
  patients with complete retinal reattachment and macular attachment: 12 patients
[13]; in chloroform or ether
  solubility: practically insoluble
[13]; in water, ethanol, methanol and glycerol
  solubility: very soluble
